Here are results for one compound from US11938189B2, “Compositions and methods for stabilizing protein-containing formulations” (Genentech, Inc., priority 2010, dated 2024).

Series [1] relates to anti-MUC16 monoclonal antibody. Briefly: Shaking at 300 rpm, turbidity of antibody formulation. In kind it is physicochemical. The note with it: shaking 300 rpm, 72 hours, 37° C. The method, then: (§1) In this set of studies, a buffered solution (20 mM sodium phosphate buffer, pH 7.4) of monoclonal antibody was subjected to shaking on an orbital shaker at 150 rpm, at a controlled temperature of 37° C. These studies were carried out using a 3 ml solution fill of the antibody solution in a 6 cc glass vial. Samples were withdrawn at regular intervals and analyzed for percent monomer using size-exclusion chromatography. Various surfactants of the class of alkylglycosides were evaluated for their effectiveness to prevent protein aggregation during shaking. The surfactants were used at concentrations below their respective critical micelle concentration (CMC) or above their respective CMC.
In FIG. 4, the effect of varying the concentration of n-octyl-β-D-glucopyranoside on the turbidity of anti-MUC16 monoclonal antibody formulations during shaking at 300 rpm for 72 hours at 37° C. was investigated.
(§2) In FIGS. 6-9, the effect of 0.23 mM (0.02% w/v) polysorbate 20 or 3.6 mM (0.1% w/v) n-octyl-β-D-glucopyranoside on the turbidity of aqueous formulations of an anti-MUC16 monoclonal antibody (FIG. 6), an anti-IgE monoclonal antibody (FIG. 7), an anti-CD11a monoclonal antibody (FIG. 8), and an anti-CD22 monoclonal antibody (FIG. 9), during shaking at 300 rpm for 72 hours at 37° C. was investigated.

For series [2], the system named is anti-CD22 monoclonal antibody. Briefly: Shaking at 300 rpm, percent monomer of antibody. In kind it is physicochemical. The note with it: 3.6 mM (0.1% w/v); shaking 300 rpm, 72 hours, 37° C.; FIG. 13. How it is done:
as §1
(§3) In FIGS. 10-13, the effect of 0.23 mM (0.02% w/v) polysorbate 20 or 3.6 mM (0.1% w/v) n-octyl-β-D-glucopyranoside on the percent monomer of aqueous formulations of an anti-MUC16 monoclonal antibody (FIG. 10), an anti-IgE monoclonal antibody (FIG. 11), an anti-CD11a monoclonal antibody (FIG. 12), and an anti-CD22 monoclonal antibody (FIG. 13), during shaking at 300 rpm for 72 hours at 37° C. was investigated.

In series [3] the test system is anti-CD11a monoclonal antibody. Briefly: Shaking at 300 rpm, percent monomer of antibody. In kind it is physicochemical. The following applies: 3.6 mM (0.1% w/v); shaking 300 rpm, 72 hours, 37° C.; FIG. 12. How it is done:
as §1, §3

Series [4] has as its system anti-IgE monoclonal antibody. Briefly: Shaking at 300 rpm, percent monomer of antibody. In kind it is physicochemical. The following applies: 3.6 mM (0.1% w/v); shaking 300 rpm, 72 hours, 37° C.; FIG. 11. How it is done: as §1, §3
The test system of series [5] is anti-CD22 monoclonal antibody. Briefly: Fenton reagent-induced oxidation of Met and Trp residues (phenyl RP-HPLC). In kind it is physicochemical. The note with it: 3.6 mM (0.1% w/v); 0.1 ppm Fe3+ and 1 ppm hydrogen peroxide, 2 or 4 weeks at 40° C., pH 5.5; compared with 0.23 mM polysorbate 20 and no surfactant; FIG. 16. The method, then: In a third experiment, Fenton reagent-induced oxidation of Met and Trp amino acid residues (i.e., amino acids known to be susceptible to oxidation) in an anti-CD22 monoclonal antibody was analyzed. Specifically, buffered (20 mM histidine acetate, pH 5.5) solutions of anti-CD22 monoclonal antibody containing 0.1 ppm Fe^3+ and 1 ppm hydrogen peroxide were prepared and stored for either 2 or 4 weeks at 40° C., either in the absence of surfactant or in the presence of 0.23 mM (0.02% w/v) polysorbate 20 or 3.6 mM (0.1% w/v) n-octyl-β-D-glucopyranoside. samples were then withdrawn and percent oxidation of Met and Trp residues was determined from the percent early peaks of the antibody eluting through a phenyl RP-HPLC column.

In series [6] the test system is anti-CD22 monoclonal antibody. The experiment in a line: Shaking at 300 rpm, turbidity of antibody formulation. It is filed as physicochemical. The following applies: 0.23 mM (0.02% w/v) polysorbate 20 or 3.6 mM (0.1% w/v) n-octyl-β-D-glucopyranoside; shaking 300 rpm, 72 hours, 37° C.; FIG. 9. The method, then: as §1, §2
The test system of series [7] is anti-CD11a monoclonal antibody. The series is described as above. It is filed as physicochemical. The note with it: 0.23 mM (0.02% w/v) polysorbate 20 or 3.6 mM (0.1% w/v) n-octyl-β-D-glucopyranoside; shaking 300 rpm, 72 hours, 37° C.; FIG. 8. The method, then: as §1, §2
Series [8] relates to anti-IgE monoclonal antibody. The description is as above. In kind it is physicochemical. The following applies: 0.23 mM (0.02% w/v) polysorbate 20 or 3.6 mM (0.1% w/v) n-octyl-β-D-glucopyranoside; shaking 300 rpm, 72 hours, 37° C.; FIG. 7. The method, then: as §1, §2
Series [9] relates to anti-MUC16 monoclonal antibody. The experiment in a line: Shaking at 300 rpm, percent monomer of antibody. The note with it: shaking 300 rpm, 72 hours, 37° C. It is filed as physicochemical. How it is done:
as §1
In FIG. 5, the effect of varying the concentration of n-octyl-β-D-glucopyranoside on the percent monomer of the anti-MUC16 monoclonal antibody in solution, following shaking at 300 rpm at 37° C. for 72 hours was investigated.
as §3

The test system of series [10] is anti-MUC16 monoclonal antibody. Briefly: Shaking-induced aggregation (150 rpm), percent monomer by size-exclusion chromatography. In kind it is physicochemical. The following applies: surfactant at one half of its CMC; shaking 150 rpm, 37° C., 64 hours; FIG. 1. The method, then:
as §1
The surfactants were employed at one half the concentration of their respective CMC values, i.e., 1.1 mM (0.035% w/v) n-decyl-β-D-glucopyranoside, 9 mM (0.24%) n-octyl-β-D-glucopyranoside and 0.04 mM (0.0035%) polysorbate 20.
Background: SEC sorts molecules by how far they enter the pores of the column.

The test system of series [11] is anti-MUC16 monoclonal antibody. The experiment in a line: Stirring-induced aggregation (500 rpm), turbidity. It is filed as physicochemical. The note with it: surfactant at one-tenth of its CMC; stirring 500 rpm, ambient temperature, 90 minutes; FIG. 2. How it is done: In this set of studies, a Tefloncoated magnetic stir bar was used to induce agitation in a buffered solution (20 mM histidine-acetate, pH 5.5) of monoclonal antibody. 3 ml of the antibody solution was filled in a 6 cc glass vial and the solution was stirred at 500 rpm using a Teflon-coated stir bar. The solution was stirred for a period of 90 minutes and samples were withdrawn at regular intervals and analyzed for turbidity as an indication of formation of insoluble aggregates. Various surfactants of the class of alkylglycosides were evaluated for their effectiveness to prevent protein aggregation during shaking. The surfactants were used at concentrations below their respective critical micelle concentration (CMC) or above their respective CMC.
FIGS. 2 and 3 show the time-course of turbidity formation in a solution of the anti-MUC16 monoclonal antibody following stirring at 500 rpm using a Teflon-coated magnetic bar at ambient temperature for a period of 90 minutes. Turbidity was evaluated in solutions containing no surfactant as well as in solutions containing different alkylglycoside surfactants or polysorbate 20. […]

The subject of series [12] is anti-CD11a monoclonal antibody. Briefly: Oxidation of Met256 on storage in surfactant-containing antibody solution. In kind it is physicochemical. The note with it: 0.1% w/v surfactant, pH 6.0, stored at 5° C. or 40° C. for 2 or 4 weeks; FIG. 15. The method, then:
In a second experiment, oxidation of the Met256 amino acid residue in an anti-CD11a monoclonal antibody in solutions containing either n-decyl-β-D-glucopyranoside, n-octyl-β-D-glucopyranoside, or polysorbate 20 was evaluated. For this purpose, 3 ml of the buffered antibody solution (pH 6.0) containing 0.1% w/v of the surfactant was stored in 6 cc vials at either 5° C. or 40° C. for a period of either 2 or 4 weeks.

For series [13] the following is noted: in water at 20-25° C.; cited from earlier work.

For `CCCCCCCCO[C@@H]1O[C@H](CO)[C@@H](O)[C@H](O)[C@H]1O` [n-octyl-β-D-glucopyranoside], the “inhibition of visible antibody aggregates measured by turbidity formation” value is “effectively inhibited the formation of visible antibody aggregates” in series [1] (0.23 mM (0.02% w/v) polysorbate 20 or 3.6 mM (0.1% w/v) n-octyl-β-D-glucopyranoside, FIG. 6); “effectively inhibited the formation of visible antibody aggregates” in series [1] (0.72, 1.8, 3.6, 9 and 18 mM n-octyl-β-D-glucopyranoside, FIG. 4); “effectively inhibited the formation of visible antibody aggregates” in [6]; “effectively inhibited the formation of visible antibody aggregates” in [7]; “effectively inhibited the formation of visible antibody aggregates” in series [8]. The “maintenance of percent monomer upon shaking vs unshaken sample” value is reported as “effectively maintained the percent monomer” in series [2]; “effectively maintained the percent monomer” in series [3]; “effectively maintained the percent monomer” in series [4]; “effectively maintained the percent monomer” in series [9] (3.6 mM (0.1% w/v), FIG. 10); “effectively maintained the percent monomer” in series [9] (all concentrations tested (0.72-18 mM), FIG. 5). Also, the “Fenton reagent-induced oxidation of susceptible amino acids (Trp, Met)” value in series [5] is listed as “inhibited”. Further, the “prevention of shaking-induced loss of percent monomer” value in [10] is “effective in preventing loss of monomer”. The “prevention of turbidity development on stirring” value in series [11] is on record as “effective in preventing turbidity development”. The “increase in percent oxidized Met256 vs initial sample” value in series [12] is reported as “no significant increase”. Besides, the “CMC Value” in [13] is on record as 18 mM. Moreover, the “CMC Value (w/v)” value in series [13] is recorded as 0.53% w/v.
